Measured values from patent US20230167088A1, “1-PYRAZINYLPYRAZOLYL-3-OXYALKYL ACIDS AND THEIR DERIVATIVES, AND THEIR USE FOR CONTROL OF UNDESIRED PLANT GROWTH” (BAYER AKTIENGESELLSCHAFT, priority 2020, published 2023).

Columns and labels:
AMARE [1] = experiment: Herbicidal pre-emergence action 2b (doubly sown, 1280 g/ha); assay type: in vivo, Amaranthus retroflexus; conditions: doubly sown pots, dosage 1280 g/ha, visual scoring after about 3 weeks
Procedure, shortened: (§1)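 Seeds are placed in sandy loam and covered, then the formulated compound is applied to the covering soil in water equivalent to 600 litres per hectare with 0.5% additive. Pots stay in the greenhouse under good growth conditions. Activity is rated visually as a percentage of untreated controls after about three weeks.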

ABUTH = experiment: Herbicidal post-emergence action 1b (twin sowing, 1280 g/ha); assay type: in vivo, Abutilon theophrasti; conditions: dosage 1280 g/ha, visual rating about 3 weeks after treatment
Protocol: (§2) [table] b) Seeds of mono- and dicotyledonous weed plants are placed in plastic pots in sandy loam soil (twin sowing with one species each of mono- or dicotyledonous weed plants per pot), covered with soil and cultivated in a greenhouse under controlled growth conditions. 2 to 3 weeks after sowing, the test plants are treated at the one-leaf stage. The compounds of the invention, formulated in the form of wettable powders (WP) or as emulsion concentrates (EC), are applied to the green parts of the plants as aqueous suspension or emulsion with addition of 0.5% additive at a water application rate equivalent to 600 litres per hectare. After the test plants have been kept in the greenhouse under optimum growth conditions for about 3 weeks, the activity of the preparations is rated visually in comparison to untreated controls. For example, 100% activity=the plants have died, 0% activity=like control plants. Tables A16 to A21 below show the effects of selected compounds of the general formula (I) according to Tables 1 and 2 on various harmful plants and at an application rate corresponding to 1280 g/ha, which were obtained by the experimental procedure mentioned above.

DIGSA [2] = experiment: Herbicidal pre-emergence action 2b (doubly sown, 1280 g/ha); assay type: in vivo, Digitaria sanguinalis; conditions: doubly sown pots, dosage 1280 g/ha, visual scoring after about 3 weeks
Procedure, shortened: as §1

STEME [3] = experiment: Herbicidal post-emergence action 1b (twin sowing, 1280 g/ha); assay type: in vivo, Stellaria media; conditions: dosage 1280 g/ha, visual rating about 3 weeks after treatment
Procedure, shortened: (§3)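 Post-emergence foliar spray on one-leaf weeds grown two species per pot in sandy loam; ~3 weeks later, visual rating from 0% (as control) to 100% (plants died).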

DIGSA [4] = experiment: as above; assay type: in vivo, Digitaria sanguinalis; conditions: dosage 1280 g/ha, visual rating about 3 weeks after treatment
Protocol: as §2

POAAN [5] = experiment: as above; assay type: in vivo, Poa annua; conditions: dosage 1280 g/ha, visual rating about 3 weeks after treatment
Procedure, shortened: as §3

MATIN [6] = experiment: Herbicidal pre-emergence action 2b (doubly sown, 1280 g/ha); assay type: in vivo, Matricaria inodora; conditions: doubly sown pots, dosage 1280 g/ha, visual scoring after about 3 weeks
Procedure, shortened: as §1

ECHCG [7] = experiment: as above; assay type: in vivo, Echinochloa crus-galli; conditions: doubly sown pots, dosage 1280 g/ha, visual scoring after about 3 weeks
Procedure, shortened: as §1

POAAN [8] = experiment: as above; assay type: in vivo, Poa annua; conditions: doubly sown pots, dosage 1280 g/ha, visual scoring after about 3 weeks
Procedure, shortened: as §1

MATIN [9] = experiment: Herbicidal post-emergence action 1b (twin sowing, 1280 g/ha); assay type: in vivo, Matricaria inodora; conditions: dosage 1280 g/ha, visual rating about 3 weeks after treatment
Procedure, shortened: as §3

STEME [10] = experiment: Herbicidal pre-emergence action 2b (doubly sown, 1280 g/ha); assay type: in vivo, Stellaria media; conditions: doubly sown pots, dosage 1280 g/ha, visual scoring after about 3 weeks
Procedure, shortened: as §1

ECHCG [11] = experiment: Herbicidal post-emergence action 1b (twin sowing, 1280 g/ha); assay type: in vivo, Echinochloa crus-galli; conditions: dosage 1280 g/ha, visual rating about 3 weeks after treatment
Protocol: as §2

ALOMY [12] = experiment: Herbicidal post-emergence action 1a (greenhouse pots, visual rating); assay type: in vivo, Alopecurus myosuroides; conditions: Dosage 80 g/ha; rated visually about 3 weeks after treatment; 100% = plants have died, 0% = like control plants
Procedure, shortened: (§4)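 Weeds and crops sown in sandy loam in greenhouse pots were sprayed post-emergence at the one-leaf stage (2–3 weeks after sowing) with WP or EC formulations plus 0.5% additive at 600 l/ha water, 320 and/or 80 g/ha. About 3 weeks later damage was rated visually against untreated controls (0% = no effect, 100% = dead).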

PHBPU = experiment: as above; assay type: in vivo, Pharbitis purpurea; conditions: dosage 80 g/ha, visual rating about 3 weeks after treatment
Protocol: (§5) [table] a) Seeds of monocotyledonous and dicotyledonous weeds and crop plants are placed in sandy loam in plastic or organic plant pots, covered with soil and cultivated in a greenhouse under controlled growth conditions. 2 to 3 weeks after sowing, the test plants are treated at the one-leaf stage. The compounds of the invention, formulated in the form of wettable powders (WP) or as emulsion concentrates (EC), are then sprayed onto the green parts of the plants as aqueous suspension or emulsion with addition of 0.5% additive at a water application rate of 600 1/ha (converted). After the test plants have been kept in the greenhouse under optimum growth conditions for about 3 weeks, the activity of the preparations is rated visually in comparison to untreated controls. For example, 100% activity=the plants have died, 0% activity=like control plants. Tables A1 to A15 below show the effects of selected compounds of the general formula (I) according to Tables 1 and 2 on various harmful plants and an application rate corresponding to 320 g/ha and/or 80 g/ha, which were obtained by the experimental procedure mentioned above.

AMARE [13] = experiment: Herbicidal pre-emergence action 2a (greenhouse pots, visual scoring); assay type: in vivo, Amaranthus retroflexus; conditions: visual scoring after about 3 weeks vs untreated controls
Procedure, shortened: (§6)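 The soil covering sown seeds is treated with an aqueous suspension or emulsion of wettable powder or emulsion concentrate (0.5% additive, 600 l/ha), corresponding to 320 g/ha and/or 80 g/ha. After about 3 weeks of greenhouse growth, damage is scored visually as a percentage.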

AMARE [14] = experiment: Herbicidal post-emergence action 1a (greenhouse pots, visual rating); assay type: in vivo, Amaranthus retroflexus; conditions: dosage 80 g/ha, visual rating about 3 weeks after treatment
Procedure, shortened: as §4

DIGSA [15] = experiment: as above; assay type: in vivo, Digitaria sanguinalis; conditions: Dosage 80 g/ha; rated visually about 3 weeks after treatment; 100% = plants have died, 0% = like control plants
Protocol: as §5

DIGSA [16] = experiment: Herbicidal pre-emergence action 2a (greenhouse pots, visual scoring); assay type: in vivo, Digitaria sanguinalis; conditions: dosage 80 g/ha, visual scoring after about 3 weeks
From the text: [table] a) Seeds of monocotyledonous and dicotyledonous weed plants and crop plants are placed in plastic or organic plant pots and covered with soil. The compounds of the invention, formulated in the form of wettable powders (WP) or as emulsion concentrates (EC), are then applied onto the surface of the covering soil as aqueous suspension or emulsion with addition of 0.5% additive at a water application rate of 600 1/ha (converted). After the treatment, the pots are placed in a greenhouse and kept under good growth conditions for the trial plants. After about 3 weeks, the effect of the preparations is scored visually in comparison with untreated controls as percentages. For example, 100% activity=the plants have died, 0% activity=like control plants. Tables B1 to B15 below show the effects of selected compounds of the general formula (I) according to Tables 1 and 2 on various harmful plants and an application rate corresponding to 320 g/ha and/or 80 g/ha, which were obtained by the experimental procedure mentioned above.

VERPE [17] = experiment: Herbicidal post-emergence action 1a (greenhouse pots, visual rating); assay type: in vivo, Veronica persica; conditions: dosage 80 g/ha, visual rating about 3 weeks after treatment
Procedure, shortened: as §4

VIOTR [18] = experiment: as above; assay type: in vivo, Viola tricolor; conditions: dosage 80 g/ha, visual rating about 3 weeks after treatment
Procedure, shortened: as §4

SETVI = experiment: Herbicidal pre-emergence action 2a (greenhouse pots, visual scoring); assay type: in vivo, Setaria viridis; conditions: dosage 320 g/ha, visual scoring after about 3 weeks vs untreated controls
Procedure, shortened: as §6

VIOTR [19] = experiment: as above; assay type: in vivo, Viola tricolor; conditions: dosage 320 g/ha, visual scoring after about 3 weeks vs untreated controls
Procedure, shortened: as §6

MATIN [20] = experiment: as above; assay type: in vivo, Matricaria inodora; conditions: dosage 320 g/ha, visual scoring after about 3 weeks vs untreated controls
Procedure, shortened: as §6

ALOMY [21] = experiment: as above; assay type: in vivo, Alopecurus myosuroides; conditions: dosage 320 g/ha, visual scoring after about 3 weeks
Procedure, shortened: as §6

VERPE [22] = experiment: as above; assay type: in vivo, Veronica persica; conditions: dosage 320 g/ha, visual scoring after about 3 weeks vs untreated controls
Procedure, shortened: as §6

LOLRI = experiment: as above; assay type: in vivo, Lolium rigidum; conditions: dosage 320 g/ha, visual scoring after about 3 weeks vs untreated controls
Procedure, shortened: as §6

Structure (SMILES) | Pre-emergence action at 1280 g/ha against AMARE in % (AMARE [1]) [%] | Post-emergence action at 1280 g/ha against ABUTH in % (ABUTH) [%] | Pre-emergence action at 1280 g/ha against DIGSA in % (DIGSA [2]) [%] | Post-emergence action at 1280 g/ha against STEME in % (STEME [3]) [%] | Post-emergence action at 1280 g/ha against DIGSA in % (DIGSA [4]) [%] | Post-emergence action at 1280 g/ha against POAAN in % (POAAN [5]) [%] | Pre-emergence action at 1280 g/ha against MATIN in % (MATIN [6]) [%] | Pre-emergence action at 1280 g/ha against ECHCG in % (ECHCG [7]) [%] | Pre-emergence action at 1280 g/ha against POAAN in % (POAAN [8]) [%] | Post-emergence action at 1280 g/ha against MATIN in % (MATIN [9]) [%] | Pre-emergence action at 1280 g/ha against STEME in % (STEME [10]) [%] | Post-emergence action at 1280 g/ha against ECHCG in % (ECHCG [11]) [%] | Post-emergence action against ALOMY in % (ALOMY [12]) [%] | other results
COC(=O)[C@H](C)Oc1nn(-c2cnccn2)c(-c2ccc(F)nc2)c1Br [Example I-18] | 100 | 90 | 100 | 100 | 100 | 100 | 90 | 100 | 100 | 90 | 100 |  |  | 
COC(=O)[C@@H](C)Oc1nn(-c2cnccn2)c(-c2cncnc2)c1Br [Example I-30] | 100 | 90 | 100 | 90 | 100 | 100 | 90 | 100 | 100 |  | 100 | 90 |  | 
CC(Oc1nn(-c2cnccn2)c(-c2ccc(F)c(F)c2)c1Br)C(=O)O (stereo not shown) [Example I-47] | 100 | 90 | 100 | 100 | 100 | 100 | 100 | 100 | 100 | 90 | 100 | 100 | 90 | Post-emergence action against PHBPU in % (PHBPU): 80%; Pre-emergence action against AMARE in % (AMARE [13]; dosage 80 g/ha): 90%; Post-emergence action against AMARE in % (AMARE [14]): 80%; Post-emergence action against DIGSA in % (DIGSA [15]): 80%; Pre-emergence action against DIGSA in % (DIGSA [16]): 100%
O=C(O)COc1nn(-c2cnccn2)c(-c2ccc(F)nc2)c1Br [Example I-49, {[4-bromo-5-(6-fluoropyridin-3-yl)-1-(pyrazin-2-yl)-1H-pyrazol-3-yl]oxy}acetic acid] | 100 | 100 | 100 | 90 | 90 | 100 | 100 | 100 | 100 | 100 | 100 | 100 |  | 
N#CCOC(=O)COc1nn(-c2cnccn2)c(-c2ccc(F)nc2)c1Br [Example I-65] | 100 | 90 | 100 | 90 | 100 | 100 | 100 | 100 | 100 | 100 | 100 | 90 | 80 | Pre-emergence action against AMARE in % (AMARE [13]; dosage 320 g/ha): 100%; Post-emergence action against VERPE in % (VERPE [17]): 80%; Post-emergence action against VIOTR in % (VIOTR [18]): 80%; Pre-emergence action against SETVI in % (SETVI): 100%; Pre-emergence action against VIOTR in % (VIOTR [19]): 90%; Pre-emergence action against MATIN in % (MATIN [20]): 90%; Pre-emergence action against ALOMY in % (ALOMY [21]): 90%; Pre-emergence action against VERPE in % (VERPE [22]): 90%; Pre-emergence action against LOLRI in % (LOLRI): 80%
O=C(COc1nn(-c2cnccn2)c(-c2ccc(F)nc2)c1Br)OCc1ccccn1 [Example I-70] | 100 | 100 | 100 | 100 | 100 |  | 100 | 100 | 100 | 100 | 100 | 90 |  | 
